The target of this assay is T1, human liver FBPase (Homo sapiens, UniProt P09467).
T1 construct: made in house; host or cells: E. coli
T1 sequence (P09467 2-338 limits assumed): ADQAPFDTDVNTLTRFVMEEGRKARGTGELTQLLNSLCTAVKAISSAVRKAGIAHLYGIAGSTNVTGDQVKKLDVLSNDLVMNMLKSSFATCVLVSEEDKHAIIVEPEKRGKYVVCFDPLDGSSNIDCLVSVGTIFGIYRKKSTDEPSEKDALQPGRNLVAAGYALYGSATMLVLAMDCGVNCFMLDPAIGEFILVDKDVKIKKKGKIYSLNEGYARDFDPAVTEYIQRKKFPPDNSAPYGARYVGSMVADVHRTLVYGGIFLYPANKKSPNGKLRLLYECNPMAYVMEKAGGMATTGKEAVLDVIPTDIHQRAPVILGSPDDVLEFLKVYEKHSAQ
Put plainly: FBPase assay: inorganic phosphate release (malachite green). Format: biochemical. Particulars: recombinant human liver FBPase, 50 μM fructose-1,6-bisphosphate, read-out at 620 nm. The procedure: The following tests were carried out for evaluating the inhibitory activity of the compounds of the present invention against human liver FBPase (Swissprot Data base reference P09467, entry F16P_HUMAN).
Human liver FBPase cDNA (NM_000507) was purchased from Origene Technologies, Inc, subcloned in a vector for expression in E. Coli., and sequenced. Recombinant human liver FBPase (hlFBPase) was purified according to the following protocol that uses heat denaturation similarly to that described by El-Maghrabi et. al. [El-Maghrabi, M. R. et al. “Isolation of a human liver fructose-1,6-bisphosphatase cDNA and expression of the protein in Escherichia coli.” J Biol Chem 268:9466-9472, 1993.]. Briefly, E. coli cells, transiently expressing very high levels of soluble and active human liver FBPase, were suspended in 20 mM Tris-HCl pH 7.5, 1 mM EDTA, 1 mM DTT and were lysed by French press. The soluble extract was heat denatured at 65° C. for 5 min, and insoluble, denatured proteins were removed by centrifugation. The extract was then applied to a BioRad Macro-Prep High Q column equilibrated with 20 mM Tris-HCl pH 7.5, 1 mM EDTA, 1 mM DTT and the flow-through (containing FBPase activity) was collected and applied to a BioRad Macro-Prep HS column equilibrated with 20 mM HEPES pH 7.2, 1 mM DTT. A gradient of increasing NaCl concentration was then applied to the HS column and fractions were collected. Fractions containing active FBPase were pooled and further purified by size exclusion chromatography on a Sephacryl S200 column equilibrated in 20 mM Tris-HCl pH 7.5, 150 mM NaCl, 1 mM EDTA, 1 mM DTT. Purity of the enzyme preparation was >90% as assessed by Mass spectrometry.
Recombinant human liver FBPase (hlFBPase) activity was assayed through measuring the inorganic phosphate release that results from the hydrolysis of Fructose-1,6-bisphosphate by the enzyme. As described by Baykov A. A. et al. in [Baykov A. A et al., “Malachite Green procedure for orthophosphate determination and its use in alkaline phosphatase-based enzyme immunoassays”. Anal. Biochem., 171:266-270, 1988], inorganic phosphate can be readily quantified by spectrophotometry at 620 nm after complexation with ammonium molybdate/malachite green reagent. Enzymatic reaction was carried out with modifications of the procedure described by Wright S. W. et al. [Wright S. W. et al., “Anilinoquinazoline inhibitors of Fructose-1,6-bisphosphatase bind to a novel allosteric site: synthesis, in vitro characterization, and X-ray crystallography”. J. Med. Chem. 45:3865-3877, 2002]. Specifically, the reaction was carried out in 96 well plates in a final volume of 100 μl in the presence or in the absence of allosteric inhibitors. Reaction was started adding 25 ng of hlFBPase to the reaction mixture containing 50 mM HEPES-KOH buffer pH 7.2, 2 mM MgCl2, 2 mM EDTA, 1 mM DTT, 50 μM fructose-1,6-bisphosphate and 1% DMSO. After 50 minutes incubation at room temperature, the phosphate released was allowed to form a colored complex for 10 min by adding 150 μl of ammonium molybdate/malachite green reagent containing 0.03% malachite green, 0.2% ammonium molybdate, 0.05% Triton X-100 and 0.7 M H2SO4 in water that was stirred for 30 min at room temperature and filtered through 0.2 μm filter. Under these conditions, the assay was linear with time and able to detect FBPase inhibition after spectrophotometric read-out at 620 nm.
By IC50 is commonly meant the point on the concentration scale where inhibition reaches its midpoint. As for `CCc1nc(NC(=O)NS(=O)(=O)c2csc(C)c2)sc1Br` [Example 57, N-[(5-Bromo-4-ethyl-1,3-thiazol-2-yl)carbamoyl]-5-methylthiophene-3-sulfonamide], the IC50 turned out to be 188 nM.

Take `CCc1nc(NC(=O)NS(=O)(=O)c2cc(C)c(CCOC)s2)sc1Br` [Example 58, N-[(5-Bromo-4-ethyl-1,3-thiazol-2-yl)carbamoyl]-5-(2-methoxyethyl)-4-methylthiophene-2-sulfonamide]: the IC50 worked out at 155 nM.

For `CCc1nc(NC(=O)NS(=O)(=O)c2cc(CCOC)c(C)s2)sc1Br` [Example 59, N-[(5-Bromo-4-ethyl-1,3-thiazol-2-yl)carbamoyl]-4-(2-methoxyethyl)-5-methylthiophene-2-sulfonamide], the 50% inhibitory concentration (IC50) worked out at 434 nM.

For `CCc1sc(NC(=O)NS(=O)(=O)c2cc(C)c(CCOC)s2)nc1C` [Example 60, N-[(5-Ethyl-4-methyl-1,3-thiazol-2-yl)carbamoyl]-5-(2-methoxyethyl)-4-methylthiophene-2-sulfonamide], the IC50 was 341 nM.

With `CCc1nc(NC(=O)NS(=O)(=O)c2csc(C)c2)sc1OC` [Example 61, N-[(4-Ethyl-5-methoxy-1,3-thiazol-2-yl)carbamoyl]-5-methylthiophene-3-sulfonamide], the IC50 came to 466 nM.

`CCc1nc(NC(=O)NS(=O)(=O)c2csc(C)c2)sc1CC` [Example 62, N-[(4,5-Diethyl-1,3-thiazol-2-yl)carbamoyl]-5-methylthiophene-3-sulfonamide]: the IC50 turned out to be 214 nM.

In the case of `CCc1nc(NC(=O)NS(=O)(=O)c2cc(C)c(CCOC)s2)sc1CC` [Example 63, N-[(4,5-Diethyl-1,3-thiazol-2-yl)carbamoyl]-5-(2-methoxyethyl)-4-methylthiophene-2-sulfonamide], the IC50 was determined as 393 nM.

For the molecule `CC(=O)OCCc1sc(S(=O)(=O)NC(=O)Nc2nc(C)c(Br)s2)cc1C` [Example 64, 2-[5-({[(5-Bromo-4-methyl-1,3-thiazol-2-yl)carbamoyl]amino}sulfonyl)-3-methyl-2-thienyl]ethyl acetate], the IC50 is 188 nM.

Turning to `Cc1cc(S(=O)(=O)NC(=O)Nc2nc(-c3ccccc3)c(C)s2)cs1` [Example 65, 5-Methyl-N-[(5-methyl-4-phenyl-1,3-thiazol-2-yl)carbamoyl]thiophene-3-sulfonamide], the IC50 came out at 300 nM.

With `COCCc1sc(S(=O)(=O)NC(=O)Nc2nc(-c3ccccc3)c(C)s2)cc1C` [Example 66, 5-(2-Methoxyethyl)-4-methyl-N-[(5-methyl-4-phenyl-1,3-thiazol-2-)carbamoyl]thiophene-2-sulfonamide], the IC50 is 160 nM.

In the case of `CCc1nc(NC(=O)NS(=O)(=O)c2cc(C)c(CCOC(C)=O)s2)sc1CC` [Example 67, 2-[5-({[(4,5-Diethyl-1,3-thiazol-2-yl)carbamoyl]amino}sulfonyl)-3-methyl-2-thienyl]ethyl acetate], the IC50 was found to be 215 nM.

With `CCc1sc(NC(=O)NS(=O)(=O)c2cc(C)c(CCOC(C)=O)s2)nc1C` [Example 68, 2-[5-({[(5-Ethyl-4-methyl-1,3-thiazol-2-yl)carbamoyl]amino}sulfonyl)-3-methyl-2-thienyl]ethyl acetate], the IC50 is 149 nM.

For `CCc1nc(NC(=O)NS(=O)(=O)c2cc(C)c(CCO)s2)sc1CC` [Example 69, N-[(4,5-Diethyl-1,3-thiazol-2-yl)carbamoyl]-5-(2-hydroxyethyl)-4-methylthiophene-2-sulfonamide], the IC50 came out at 340 nM.

Take `CCc1sc(NC(=O)NS(=O)(=O)c2cc(C)c(CCO)s2)nc1C` [Example 70, N-[(5-Ethyl-4-methyl-1,3-thiazol-2-yl)carbamoyl]-5-(2-hydroxyethyl)-4-methylthiophene-2-sulfonamide]: the IC50 was determined as 417 nM.

As for `CCc1sc(NC(=O)NS(=O)(=O)c2csc(C)c2)nc1-c1ccccc1` [Example 71, N-[(5-Ethyl-4-phenyl-1,3-thiazol-2-yl)carbamoyl]-5-methylthiophene-3-sulfonamide], the IC50 was 159 nM.

Regarding `CCc1sc(NC(=O)NS(=O)(=O)c2cc(C)c(CCOC)s2)nc1-c1ccccc1` [Example 72, N-[(5-Ethyl-4-phenyl-1,3-thiazol-2-yl)carbamoyl]-5-(2-methoxyethyl)-4-methylthiophene-2-sulfonamide], the IC50 turned out to be 224 nM.

On to `CC(=O)OCCc1sc(S(=O)(=O)NC(=O)Nc2nc(-c3ccccc3)c(C)s2)cc1C` [Example 73, 2-[3-Methyl-5-({[(5-methyl-4-phenyl-1,3-thiazol-2-yl)carbamoyl]amino}sulfonyl)-2-thienyl]ethyl acetate], for which the IC50 was 128 nM.

On to `COc1sc(NC(=O)NS(=O)(=O)c2cc(C)c(CCOC(C)=O)s2)nc1C` [Example 74, 2-[5-({[(5-Methoxy-4-methyl-1,3-thiazol-2-yl)carbamoyl]amino}sulfonyl)-3-methyl-2-thienyl]ethyl acetate], for which the IC50 was determined as 454 nM.

Regarding `CCc1sc(NC(=O)NS(=O)(=O)c2cc(C)c(CCOC(C)=O)s2)nc1C(C)C` [Example 75, 2-[5-({[(5-Ethyl-4-isopropyl-1,3-thiazol-2-yl)carbamoyl]amino}sulfonyl)-3-methyl-2-thienyl]ethyl acetate], the IC50 was 256 nM.

In the case of `Cc1cc(S(=O)(=O)NC(=O)Nc2nc(-c3ccccc3)c(C)s2)sc1CCO` [Example 76, 5-(2-Hydroxyethyl)-4-methyl-N-[(5-methyl-4-phenyl-1,3-thiazol-2-yl)carbamoyl]thiophene-2-sulfonamide], the IC50 stood at 280 nM.

Consider `CCc1sc(NC(=O)NS(=O)(=O)c2cc(C)c(CCOC)s2)nc1C(C)C` [Example 77, N-[(5-Ethyl-4-isopropyl-1,3-thiazol-2-yl)carbamoyl]-5-(2-methoxyethyl)-4-methylthiophene-2-sulfonamide], for which the IC50 came out at 366 nM.

Consider `CCc1sc(NC(=O)NS(=O)(=O)c2csc(C)c2)nc1C(C)C` [Example 78, N-[(5-Ethyl-4-isopropyl-1,3-thiazol-2-yl)carbamoyl]-5-methylthiophene-3-sulfonamide], for which the IC50 turned out to be 168 nM.

For the molecule `CCc1sc(NC(=O)NS(=O)(=O)c2cc(C)c(CCO)s2)nc1C(C)C` [Example 79, N-[(5-Ethyl-4-isopropyl-1,3-thiazol-2-yl)carbamoyl]-5-(2-hydroxyethyl)-4-methylthiophene-2-sulfonamide], the IC50 turned out to be 188 nM.

As to `CCc1sc(NC(=O)NS(=O)(=O)c2cc(C)c(CCOC(C)=O)s2)nc1-c1ccccc1` [Example 80, 2-[5-({[(5-Ethyl-4-phenyl-1,3-thiazol-2-yl)carbamoyl]amino}sulfonyl)-3-methyl-2-thienyl]ethyl acetate], the IC50 amounted to 161 nM.

On to `CCc1sc(NC(=O)NS(=O)(=O)c2cc(C)c(CCO)s2)nc1-c1ccccc1` [Example 81, N-[(5-Ethyl-4-phenyl-1,3-thiazol-2-yl)carbamoyl]-5-(2-hydroxyethyl)-4-methylthiophene-2-sulfonamide], for which the IC50 came to 102 nM.

With `CCc1nc(NC(=O)NS(=O)(=O)c2cc(C)c(CCOC)s2)sc1SC` [Example 82, N-{[4-Ethyl-5-(methylthio)-1,3-thiazol-2-yl]carbamoyl}-5-(2-methoxyethyl)-4-methylthiophene-2-sulfonamide], the IC50 stood at 144 nM.

The record behind these values is patent publication US7973051B2 (Hoffman-La Roche Inc., priority 2007, dated 2011).
